This is an account of results in patent US5741781A, “Mercaptoalkanoyldipeptide compounds” (Adir et Compagnie, priority 1995, dated 1998).

In test [1] the target is peptidyldipeptidase A (ACE) (Homo sapiens, UniProt P12821). As to the kind of experiment: Inhibitory effect in vitro on peptidyldipeptidase A, Z-Phe-His-Leu as substrate. Type of test: biochemical. Here is the method: The inhibitory properties of the compounds of the invention are measured using [^3 H]-D-Ala^2 -Leu-encephalin as substrate for neutral endopeptidase, in accordance with the protocol described by Llorens et al. (Biochem. Biophys. Res. Commun., 96, (1980), 1710 sqq), and Z-Phe-His-Leu as substrate in the case of peptidyldipeptidase A in accordance with the protocol described in Biochem. Biophys. Acta, 206, (1970), 136-142.
Chain of peptidyldipeptidase A (ACE) (P12821 30-1306, species assumed): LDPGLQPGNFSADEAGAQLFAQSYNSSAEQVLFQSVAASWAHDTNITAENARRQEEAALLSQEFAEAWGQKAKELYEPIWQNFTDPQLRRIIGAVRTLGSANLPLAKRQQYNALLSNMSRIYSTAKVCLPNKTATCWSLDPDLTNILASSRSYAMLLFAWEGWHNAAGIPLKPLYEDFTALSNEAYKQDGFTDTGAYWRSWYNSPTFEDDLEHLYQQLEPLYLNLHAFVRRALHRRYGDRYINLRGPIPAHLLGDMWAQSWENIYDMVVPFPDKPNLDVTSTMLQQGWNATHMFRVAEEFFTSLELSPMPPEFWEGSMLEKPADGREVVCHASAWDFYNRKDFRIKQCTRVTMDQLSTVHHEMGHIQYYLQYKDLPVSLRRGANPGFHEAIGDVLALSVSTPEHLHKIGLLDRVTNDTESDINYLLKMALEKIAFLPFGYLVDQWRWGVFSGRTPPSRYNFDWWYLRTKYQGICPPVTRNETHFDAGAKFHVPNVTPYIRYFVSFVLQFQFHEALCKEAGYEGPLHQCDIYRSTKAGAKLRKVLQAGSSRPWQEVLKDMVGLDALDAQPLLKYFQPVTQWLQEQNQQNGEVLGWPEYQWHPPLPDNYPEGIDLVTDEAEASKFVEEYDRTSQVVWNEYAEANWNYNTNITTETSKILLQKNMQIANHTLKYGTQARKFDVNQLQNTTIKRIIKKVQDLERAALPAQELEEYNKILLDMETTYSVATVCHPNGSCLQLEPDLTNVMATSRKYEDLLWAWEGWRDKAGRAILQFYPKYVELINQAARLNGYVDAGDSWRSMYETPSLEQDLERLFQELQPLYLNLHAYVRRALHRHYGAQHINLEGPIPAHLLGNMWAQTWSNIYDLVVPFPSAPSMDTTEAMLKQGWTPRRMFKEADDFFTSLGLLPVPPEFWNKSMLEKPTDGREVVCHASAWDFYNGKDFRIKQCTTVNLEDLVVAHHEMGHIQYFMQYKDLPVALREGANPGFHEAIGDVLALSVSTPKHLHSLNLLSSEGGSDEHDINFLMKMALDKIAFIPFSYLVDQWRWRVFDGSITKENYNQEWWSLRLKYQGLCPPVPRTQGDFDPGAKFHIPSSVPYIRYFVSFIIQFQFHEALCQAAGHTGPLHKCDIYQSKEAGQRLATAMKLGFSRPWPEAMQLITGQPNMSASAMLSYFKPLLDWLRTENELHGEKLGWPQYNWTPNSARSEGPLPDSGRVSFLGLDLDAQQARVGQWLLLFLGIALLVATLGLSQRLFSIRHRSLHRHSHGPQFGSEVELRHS

Test [2] concerns the target neutral endopeptidase (NEP) (Homo sapiens, UniProt P08473). The test can be described thus: Inhibitory effect in vitro on neutral endopeptidase, [3H]-D-Ala2-Leu-encephalin as substrate. It is filed as biochemical. The following applies: in vitro.

Chain of neutral endopeptidase (NEP) (P08473 whole entry, species assumed): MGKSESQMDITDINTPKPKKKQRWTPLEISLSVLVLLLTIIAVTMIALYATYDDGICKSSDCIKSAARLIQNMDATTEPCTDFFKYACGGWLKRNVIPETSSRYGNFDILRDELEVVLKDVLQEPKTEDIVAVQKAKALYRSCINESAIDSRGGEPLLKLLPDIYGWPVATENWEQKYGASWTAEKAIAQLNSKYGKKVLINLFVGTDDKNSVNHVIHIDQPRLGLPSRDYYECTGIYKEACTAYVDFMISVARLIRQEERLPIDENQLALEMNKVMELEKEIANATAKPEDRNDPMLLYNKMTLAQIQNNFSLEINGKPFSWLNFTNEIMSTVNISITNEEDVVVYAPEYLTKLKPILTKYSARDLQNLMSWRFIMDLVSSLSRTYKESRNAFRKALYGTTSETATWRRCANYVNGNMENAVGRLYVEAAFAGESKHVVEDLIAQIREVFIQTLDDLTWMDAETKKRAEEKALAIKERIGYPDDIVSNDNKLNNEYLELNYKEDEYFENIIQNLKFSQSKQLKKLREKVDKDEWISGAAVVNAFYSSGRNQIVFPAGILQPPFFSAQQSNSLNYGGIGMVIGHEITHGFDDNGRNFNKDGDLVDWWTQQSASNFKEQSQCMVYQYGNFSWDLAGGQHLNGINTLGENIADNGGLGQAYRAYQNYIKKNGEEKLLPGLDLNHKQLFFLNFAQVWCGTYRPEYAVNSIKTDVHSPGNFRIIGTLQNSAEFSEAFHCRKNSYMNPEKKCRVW

Regarding `O=C(NCC(=O)N1C(c2cccc(O)c2)CC[C@H]1C(=O)O)C(S)Cc1ccccc1` (some centres unmarked) [Example 20, N-[N-(2-Mercapto-3-phenylpropanoyl)glycyl]-5-(meta-hydroxyphenyl)proline], the results for the IC50 in test [1] and in test [2] were 1.4 ± 0.7 nM and 2.4 ± 0.8 nM, respectively.
As to `Nc1ccc(CC(S)C(=O)NCC(=O)N2C(c3ccccc3)CC[C@H]2C(=O)O)cc1` (some centres unmarked) [Example 14, N-[N-[2-Mercapto-3-(para-aminophenyl)propanoyl]glycyl]-5-phenylproline], the IC50 in test [1] is 3.5 ± 0.5 nM; in test [2], 1.8 ± 0.4 nM.
In the same order, the values of `COc1ccc(CC(S)C(=O)NCC(=O)N2C(c3ccccc3O)CC[C@H]2C(=O)O)cc1` (some centres unmarked) [Example 26, N-[N-[2-Mercapto-3-(para-methoxyphenyl)propanoyl]glycyl]-5-(orthohydroxyphenyl)proline] are 0.4 ± 0.05 nM and 2.3 ± 0.3 nM.
`Cc1ccc(C2CC[C@@H](C(=O)O)N2C(=O)CNC(=O)C(S)Cc2ccc(O)cc2)cc1` (some centres unmarked) [Example 32, N-[N-[2-Mercapto-3-(para-hydroxyphenyl)propanoyl]glycyl]-5-(para-methylphenyl)proline]: the IC50 in test [1] stood at 3.2 ± 0.4 nM; in test [2], 5 ± 0.5 nM.
On to `O=C(NCC(=O)N1C(c2ccccc2)CC[C@H]1C(=O)O)C(S)Cc1ccccc1` (some centres unmarked) [Example 3, N-[N-(2-Mercapto-3-phenylpropanoyl)glycyl]-5-phenylproline], for which the IC50 in test [1] was 0.55 ± 0.05 nM; in test [2] it was 1.6 ± 0.3 nM.
For `O=C(NCC(=O)N1C(c2ccccc2O)CC[C@H]1C(=O)O)C(S)Cc1ccc(Cl)cc1` (some centres unmarked) [Example 24], in that order: 0.9 ± 0.06 nM and 1.2 ± 0.4 nM.
As to `Cc1ccccc1C1CC[C@@H](C(=O)O)N1C(=O)CNC(=O)C(S)Cc1ccccc1` (some centres unmarked) [Example 36, N-[N-(2-Mercapto-3-phenylpropanoyl)glycyl]-5-(ortho-methylphenyl)proline], the IC50 in test [1] came to 3.5 ± 0.6 nM; in test [2], 4 ± 0.6 nM.
In the same order, the values of `O=C(NCC(=O)N1C(c2ccccc2O)CC[C@H]1C(=O)O)C(S)Cc1ccccc1` (some centres unmarked) [Example 5, N-[N-(2-Mercapto-3-phenylpropanoyl)glycyl]-5-(ortho-hydroxyphenyl)-proline] are 0.5 ± 0.1 nM and 1.1 ± 0.3 nM.
In the same order, the values of `COc1ccc(CC(S)C(=O)NCC(=O)N2C(c3ccccc3OC)CC[C@H]2C(=O)O)cc1` (some centres unmarked) [Example 28, N-[N-[2-Mercapto-3-(para-methoxyphenyl)propanoyl]glycyl]-5-(orthomethoxyphenyl)proline] are 2.2 ± 0.2 nM and 2.5 ± 0.6 nM.
In the same order, the values of `O=C(NCC(=O)N1C(c2ccccc2)CC[C@H]1C(=O)O)C(S)Cc1ccc(O)cc1` (some centres unmarked) [Example 10, N-[N-[2-Mercapto-3-(para-hydroxyphenyl)propanoyl]glycyl]-5-phenylproline] are 4.2 ± 0.4 nM and 3.4 ± 0.8 nM.
With `Nc1ccc(C2CC[C@@H](C(=O)O)N2C(=O)CNC(=O)C(S)Cc2ccc(O)cc2)cc1` (some centres unmarked) [Example 16, N-[N-[2-Mercapto-3-(para-hydroxyphenyl)propanoyl]glycyl]-5-(para-aminophenyl)proline], the figures for the IC50 in test [1] and in test [2] were 23 ± 3 nM and 26 ± 3 nM, respectively.
For `O=C(NCC(=O)N1C(c2ccccc2O)CC[C@H]1C(=O)O)C(S)Cc1ccc(O)cc1` (some centres unmarked) [Example 7, N-[N-[2-Mercapto-3-(para-hydroxyphenyl)propanoyl]glycyl]-5-(ortho-hydroxyphenyl)proline], in that order: 0.35 ± 0.05 nM and 4.3 ± 0.3 nM.
For `Cc1ccccc1C1CC[C@@H](C(=O)O)N1C(=O)CNC(=O)C(S)Cc1ccc(O)cc1` (some centres unmarked) [Example 34, N-[N-[2-Mercapto-3-(para-hydroxyphenyl)propanoyl]glycyl]-5-(ortho-methylphenyl)proline], in that order: 5.2 ± 0.5 nM and 3.1 ± 0.3 nM.
For `Cc1ccc(C2CC[C@@H](C(=O)O)N2C(=O)CNC(=O)C(S)Cc2ccccc2)cc1` (some centres unmarked) [Example 30, N-[N-(2-Mercapto-3-phenylpropanoyl)glycyl]-5-(para-methylphenyl)proline], in that order: 8.2 ± 0.5 nM and 10 ± 2 nM.
For the compound `O=C(NCC(=O)N1C(c2cccc(O)c2)CC[C@H]1C(=O)O)C(S)Cc1ccc(O)cc1` (some centres unmarked) [Example 18, N-[N-[2-Mercapto-3-(para-hydroxyphenyl)propanoyl]glycyl]-5-(metahydroxyphenyl)proline], the IC50 in test [1] was 0.7 ± 0.2 nM; in test [2] it was 1.6 ± 0.3 nM.
As to `O=C(NCC(=O)N1C(c2ccc(O)cc2)CC[C@H]1C(=O)O)C(S)Cc1ccc(O)cc1` (some centres unmarked) [Example 22, N-[N-[2-Mercapto-3-(para-hydroxyphenyl)propanoyl]glycyl]-5,(para-hydroxyphenyl)proline], the IC50 in test [1] turned out to be 0.45 ± 0.05 nM; in test [2], 6 ± 1 nM.
